Data as given in patent US20250121013A1, “USE OF BACILLUS AMYLOLIQUEFACIENS FOR PREVENTING AND TREATING PARKINSON'S DISEASE” (Artugen Therapeutics Ltd., priority 2021, published 2025).
Converted amounts (≈) assume the structure as drawn.

Tests used:
[1] = tested on: MPTP-induced model of PD; experiment: MPTP-induced mouse model of PD, striatal dopamine and DOPAC (Example 1); format: in vivo
Protocol: • Route(s) of administration: IP for MPTP (1-Methyl-4-phenyl-1,2,3,6-tetrahydropyridine hydrochloride) and vehicle, PO for ART24 and vehicle (trehalose) • Dose Volume(s): 10 mL/kg for MPTP, 0.1 mL for ART24 • Formulation(s): PBS for MPTP; saline-based formulation for ART24 • Dose Levels: 20 mg/kg for MPTP, for ART24 • Dose Frequency: 4 doses (QD) for MPTP; 11 days BID for ART24 • Study duration: 11 days • Number of Groups: 4 • Number of animals per group: 13 • Total number of animals: 52 (57 animals were enrolled in the study)
MPTP model. MPTP was formulated in phosphate buffered saline (PBS) and administered to mice QD for 4 days at a dose of 20 mg/kg (2 mg/mL delivered as 10 mL/kg).
Neurotransmitter measurements (DA and DOPAC). 10 mice from each were anesthetized and blood collected into K2EDTA tubes by a cardiac puncture. Brains were extracted and dissected. The rostral part was dissected and striata removed. The striata were frozen and subsequently evaluated for levels of dopamine and metabolites.
Striata were homogenized in 0.3M perchloric acid. The resulting supernatant was analyzed for levels of monoamines by reverse phase HPLC-ECD.
Data analysis. Data were analyzed using a two-way repeated measures ANOVA with a post hoc Fisher's LSD multiple comparison test. The raw data were also analyzed for outliers using ROUT method (Q=1%). GraphPad Prism 9 was used for data analysis and presentation.

[2] = tested on: MPTP-induced model of PD; experiment: Locomotion activity in MPTP zebrafish model (Example 6); format: in vivo; details: larvae; MPTP 250 μM 96 to 120 hpf; ART24 4×10^6 CFU/mL in water of MPTP-exposed fish; 50 min alternating dark/light
Protocol: Zebrafish larvae were dosed with MPTP (250 μM; 96 to 120 hours post fertilization) or sham treated (DMSO only; n=22) in water. ART24 was dosed in water of MPTP-exposed fish (4×10^6 CFU/mL; n=16). Movement was evaluated with an imaging system during 50 min of testing consisting of 10-min periods of alternating darkness/bright light. Data was analyzed by one-way ANOVA followed by a Dunnet test comparing against MPTP treatment.

[3] = tested on: ART24; experiment: Antibiotic susceptibility of ART24, MIC, VetMIC panels (Table 2); format: cell-based, Bacillus amyloliquefaciens; details: 24 hr at 37° C., average results from N = 6
Protocol: The minimum inhibitory concentration (MIC) of the listed antimicrobials is expressed as μg/mL. […] The wells of the prefabricated 96-well plates were filled with 100 μL of the final suspension. The plates were sealed with an […], Sigma Aldrich) sealing film (to facilitate growth of the aerobic Bacillus. The plates were then incubated for 24 hr at 37° C. The results are recorded after 24 hours as the lowest concentration of the antibiotic to inhibit visible growth. The prefabricated panels […], Uppsala, Sweden) comprising the antibiotics ampicillin, vancomycin, gentamicin, kanamycin, streptomycin, erythromycin, clindamycin, tetracycline, chloramphenicol, neomycin, penicillin, quinupristin-dalfopristin, linezolid, trimethoprim, ciprofloxacin and rifampicin were used.

[4] = tested on: ART24; experiment: Antibiotic susceptibility of ART24 lots and cell banks, MIC following EFSA testing recommendations (Table 3); format: cell-based, Bacillus amyloliquefaciens; details: for MIC: Bacillus amyloliquefaciens
Protocol: The minimum inhibitory concentration (MIC) of the listed antimicrobials is expressed as μg/mL. Additional studies following EFSA testing recommendations were performed on lyophilized ART24 lots CO-33-10A2 and CO-33-12A2 and Research and Master Cell Banks CO-33-ART24 BHI and CO-33-ART24 SYD, and those results are shown in Table 3.

[5] = compared to saline/MPTP dosed animals, PO BID Day -3 to Day 7, MPTP 20 mg/kg IP QD 4 days, n=10/group
[6] = MPTP 20 mg/kg IP QD 4 days compared to saline/vehicle treated animals
[7] = ART24 source: cell bank CO-33 ART 24 BHI
[8] = ART24 source: cell bank CO-33 ART 024 SYD
[9] = ART24 source: lyophilized lot CO-33-10A2
[10] = ART24 source: lyophilized lot CO-33-12A2

Compound	MIC interpretation, CO-33 ART 24 BHI [4, 7]	MIC interpretation, CO-33 ART 024 SYD [4, 8]	MIC interpretation, CO-33-10A2 [4, 9]	MIC interpretation, CO-33-12A2 [4, 10]	ART24 MIC [3]	MIC, CO-33 ART 24 BHI [4, 7]	MIC, CO-33 ART 024 SYD [4, 8]	MIC, CO-33-10A2 [4, 9]	MIC, CO-33-12A2 [4, 10]	further results
OC[C@H]1O[C@H](O[C@H]2O[C@H](CO)[C@@H](O)[C@H](O)[C@H]2O)[C@H](O)[C@@H](O)[C@@H]1O [trehalose]										DOPAC concentration in the striatum [1, 5]: did not produce a significant effect; dopamine concentration in the striatum [1, 5]: did not produce a significant effect
CN1CC=C(c2ccccc2)CC1.Cl [MPTP, 1-Methyl-4-phenyl-1,2,3,6-tetrahydropyridine hydrochloride]										DOPAC content in the striatum [1, 6]: significant depletion; dopamine content in the striatum [1, 6]: significant depletion; total motor movement distance [2]: 24 % of sham
CO[C@H]1/C=C/O[C@@]2(C)Oc3c(C)c(O)c4c(O)c(c(/C=N/N5CCN(C)CC5)c(O)c4c3C2=O)NC(=O)/C(C)=C\C=C\[C@H](C)[C@H](O)[C@@H](C)[C@@H](O)[C@@H](C)[C@H](OC(C)=O)[C@@H]1C [Rifampicin]	S	S	S	S						MIC ([3]; Bacillus amyloliquefaciens, read-out: ART24 MIC): 0.5 µg/mL (≈ 0.608 µM); MIC ([4]; ART24 source: cell bank CO-33 ART 24 BHI, read-out: MIC, CO-33 ART 24 BHI): 0.25 µg/mL (≈ 0.304 µM); MIC ([4]; ART24 source: cell bank CO-33 ART 024 SYD, read-out: MIC, CO-33 ART 024 SYD): 0.25 µg/mL (≈ 0.304 µM); MIC ([4]; ART24 source: lyophilized lot CO-33-10A2, read-out: MIC, CO-33-10A2): 0.25 µg/mL (≈ 0.304 µM); MIC ([4]; ART24 source: lyophilized lot CO-33-12A2, read-out: MIC, CO-33-12A2): 0.25 µg/mL (≈ 0.304 µM)
Gentamicin	S	S	S	S	≤0.5 µg/mL	≤ 0.06 µg/mL	≤ 0.06 µg/mL	≤ 0.06 µg/mL	≤ 0.06 µg/mL	
Quinupristin-dalfopristin					4 µg/mL	2 µg/mL	2 µg/mL	1 µg/mL	2 µg/mL	
